One data set concerns the target T1, GC receptor (Homo sapiens, UniProt P47871).
T1 construct: expressed in transfected cells; host or cells: HEK293 cells
Nature of the data set: GC receptor mediated cAMP production in vitro (HEK293 cells transfected with GC receptor). The class given is cell-based. Conditions: 20 min at 37° C., read-out: GCGR (nM EC50). An excerpt: The medium was removed, the cells were lysed, and cAMP values were detected referring to the detection method described for the assay kit.
(Changes in cAMP serve as a functional read-out for many G protein-coupled receptors.)

Data set [1] in a line: Glucose tolerance test in glucose-loaded DIO mice. Conditions: for AUC of blood glucose, Table 6: Example 4, DIO mice under glucose load, methods as in Example 3; for AUC reduction rate (%), Table 6: Example 4, compared with model control group, DIO mice under glucose load. Also noted: AUC reduction rate (%), Table 6: concentration or dose not given beside the values. Type of data set: in vivo. As to the method: DIO mice fasted for 16 h, and 1 h after administration by subcutaneous injection, glucose solution (1 g/kg) was given intraperitoneally for glucose tolerance test. Blood glucose values were measured at 0.5, 1 and 1.5 h after glucose administration. The area under the blood glucose concentration curve (AUC) was calculated and compared with that of the model control group, and the blood glucose inhibition rate (%) was calculated.
(§1) Methods are the same as that in Example 3, the test results of effects on body weight are shown in Table 5, and the effects on blood glucose are shown in Table 6. In the table, 5 #-9 # are compound 27, compound 35, compound 54, compound 57, and compound 66, respectively.

Data set [2] can be described thus: Effect on body weight of DIO mice after 14 days' administration. Type of data set: in vivo, C57BL/6J mice. Conditions: positive values indicate a decrease; for body weight change, Table 5: Example 4, DIO mice, 14 days' administration, methods as in Example 3.
Excerpt: C57BL/6J mice (n=35), model group (n=30) were fed with H10060 high-fat diet to induce obesity (DIO), blank control group (n=5) were fed with standard diet, both for 34 weeks. One day before the first administration, the model group was randomly divided into groups according to their body weight (average body weight range 45.0-52.0 g), with 5 mice in each group, which respectively were model control group, positive control group (semaglutide), and test sample group (1 #-4 # are compound 1, compound 4, compound 6 and compound 22, respectively). The blank control group and model control group were given saline subcutaneously every day, while the positive control group and test sample group were administrated by subcutaneous injection every day for 14 days. The body weight of the animals was weighed and recorded every day, and the change rate of body weight (%) was calculated by comparing the body weight at the last administration day with the initial body weight. (initial body weight−last body weight)/initial body weight=body weight change rate (%). Calculation formula: […]
Calculated positive values indicate a decrease and negative values indicate an increase.
as §1

The nature of another data set: physchem. Type of data set: physicochemical.
The nature of data set [3]: Short-term administration: food intake and body weight in DIO mice. Conditions: 30 nmol/kg once every 24 h, twice, − decrease. The class given is in vivo. On the procedure: Method: diet-induced obese mice (DIO) with an average body weight of 52.5 g were divided into model control and test groups, 5 mice in each group. The test samples were dissolved in 10 mM PBS of pH7.4, injected once every 24 h at a dose of 30 nmol/kg, and administered twice. The model group was injected with solvent. Changes in food intake and body weight at 48 hours were measured, and the change rates were calculated compared to the day before administration.

Data set [4] can be described thus: Accelerated chemical stability in injection solvent system (HPLC-UV). The class given is physicochemical. Conditions: 14 days, phosphate buffer pH 7.3 with Tween 80 and phenol, main peak area vs day 0. On the procedure: The chemical stability of the compounds of the present invention in injection solution systems was evaluated by an accelerated stability test. Methods: an appropriate amount of compound of Example 1 was weighed, and dissolved in 10 mM pH8.5 sodium hydrogen phosphate buffer. The final pH value of the solution was adjusted to 7.3 with 0.1 N hydrochloric acid, and proper amounts of Tween 80 and phenol were added. The mixture was placed at 10° C. and 37° C. for 14 days, and detected by HPLC-UV. The main peak area was obtained by peak area normalization method, and the changes compared with day 0 were investigated. The HPLC detection method was the same as that in Example 6, and the mobile phase gradient was appropriately adjusted according to the situation of chromatographic peak separation.

[5] abbreviates: pH 7.5, Solubility, pH 7.5, 10 mM phosphate buffer.
Setting [6] is: pH 7.5, Solubility, pH 7.5, 20 mM phosphate buffer.

From patent US12257287B2, “Glucagon-derived peptide and use thereof” (Tianjin Institute of Pharmaceutical Research Co., Ltd., priority 2018, dated 2025) come the findings set out here.

Converted amounts (≈) assume the structure as drawn. Marks after values point to notes of the source that are not given here. Numbered stars: 1 amine (or outer) side, 2 acyl side, 3 side chain; on linkers, the order of the positions; unused ones are H or OH. Square brackets hold non-standard residues; d marks the D form. Side chains are listed from the residue outwards. Peptide text beside a SMILES is read from it. * marks the point of attachment. C18 diacid = O=C(O)CCCCCCCCCCCCCCCCC(=O)*; γGlu = O=C(O)[C@H](CCC(=O)[*:2])N[*:1]; AEEA = NCCOCCOCC(=O)O; Aib = CC(C)(N)C(=O)O A value given as a limit tells only on which side of the number the result lay.
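Wherever Solubility is given: compound added at 2 mg per mL of phosphate buffer, with the dissolved amount determined in the supernatant.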

T1 sequence (P47871 26-477): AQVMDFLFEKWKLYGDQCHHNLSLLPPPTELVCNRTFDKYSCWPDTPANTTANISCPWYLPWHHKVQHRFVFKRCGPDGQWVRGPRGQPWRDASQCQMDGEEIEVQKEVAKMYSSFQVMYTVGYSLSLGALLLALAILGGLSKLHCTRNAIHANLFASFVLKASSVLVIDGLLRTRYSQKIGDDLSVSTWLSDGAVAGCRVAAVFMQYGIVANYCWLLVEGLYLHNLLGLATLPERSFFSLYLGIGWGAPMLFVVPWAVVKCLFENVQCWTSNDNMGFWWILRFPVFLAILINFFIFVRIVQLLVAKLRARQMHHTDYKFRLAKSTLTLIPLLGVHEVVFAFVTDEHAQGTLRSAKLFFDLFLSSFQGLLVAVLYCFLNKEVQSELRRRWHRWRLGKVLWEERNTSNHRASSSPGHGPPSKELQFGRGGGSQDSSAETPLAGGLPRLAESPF

As a reminder, the EC50 is the concentration needed to bring the measured effect to its halfway point. As for `CCCCCCCCCCCCCCCC(=O)N[C@@H](CCC(=O)N[C@@H](CCC(=O)NCCCC[C@H](NC(=O)[C@H](CC(=O)O)NC(=O)[C@H](CO)NC(=O)[C@@H](NC(=O)[C@H](Cc1ccccc1)NC(=O)[C@@H](NC(=O)CNC(=O)[C@H](CCC(N)=O)NC(=O)C(C)(C)NC(=O)[C@@H](N)Cc1c[nH]cn1)[C@@H](C)O)[C@@H](C)O)C(=O)N[C@@H](CO)C(=O)N[C@@H](CCCCN)C(=O)N[C@@H](Cc1ccc(O)cc1)C(=O)N[C@@H](CC(C)C)C(=O)N[C@@H](CCC(=O)O)C(=O)N[C@@H](CCC(=O)O)C(=O)N[C@@H](CCCNC(=N)N)C(=O)N[C@@H](C)C(=O)N[C@@H](C)C(=O)N[C@@H](CCCCN)C(=O)N[C@@H](CCC(=O)O)C(=O)N[C@@H](Cc1ccccc1)C(=O)N[C@H](C(=O)N[C@@H](CCC(=O)O)C(=O)N[C@@H](Cc1c[nH]c2ccccc12)C(=O)N[C@@H](CC(C)C)C(=O)N[C@@H](CCC(=O)O)C(=O)NCC(=O)NCC(=O)N1CCC[C@H]1C(=O)N[C@@H](CO)C(=O)N[C@@H](CO)C(=O)NCC(N)=O)C(C)C)C(=O)O)C(=O)O` [Compound 5] (HELM PEPTIDE1{H.[Aib].Q.G.T.F.T.S.D.K.S.K.Y.L.E.E.R.A.A.K.E.F.V.E.W.L.E.G.G.P.S.S.G.[am]}|PEPTIDE2{[CCCCCCCCCCCCCCCC(=O)[*:2]].[gGlu].[gGlu]}$PEPTIDE1,PEPTIDE2,10:R3-3:R2$$$V2.0; N-terminus assumed), the EC50 on GC receptor was determined as 0.193 nM. For the same compound, in data set [1] (listed as 5#), the “AUC of blood glucose, Table 6” value turned out to be 7.12 ± 1.30 mmol·h/L and the “AUC reduction rate (%), Table 6” value is reported as 64.2** %. In addition, the “body weight change, Table 5” value in data set [2] (listed as 5#) came to 27.74.
Usually solubility stands for how much of the substance goes into solution per volume. Regarding `CCCCCCCCCCCCCCCC(=O)N[C@@H](CCC(=O)N[C@@H](CCC(=O)NCCCC[C@H](NC(=O)[C@H](CCC(=O)O)NC(=O)[C@H](CCC(=O)O)NC(=O)[C@H](CC(C)C)NC(=O)[C@H](Cc1ccc(O)cc1)NC(=O)[C@H](CCCCN)NC(=O)[C@H](CO)NC(=O)[C@H](Cc1ccc(O)cc1)NC(=O)[C@H](CC(=O)O)NC(=O)[C@H](CO)NC(=O)[C@@H](NC(=O)[C@H](Cc1ccccc1)NC(=O)[C@@H](NC(=O)CNC(=O)[C@H](CCC(N)=O)NC(=O)C(C)(C)NC(=O)[C@@H](N)Cc1c[nH]cn1)[C@@H](C)O)[C@@H](C)O)C(=O)N[C@@H](CCCNC(=N)N)C(=O)N[C@@H](C)C(=O)N[C@@H](CCCNC(=N)N)C(=O)N[C@@H](CCC(=O)O)C(=O)N[C@@H](Cc1ccccc1)C(=O)N[C@H](C(=O)N[C@@H](C)C(=O)N[C@@H](Cc1c[nH]c2ccccc12)C(=O)N[C@@H](CC(C)C)C(=O)N[C@@H](CC(C)C)C(=O)N[C@@H](CCC(=O)O)C(=O)NCC(=O)NCC(=O)N1CCC[C@H]1C(=O)N[C@@H](CO)C(=O)N[C@@H](CO)C(=O)NCC(N)=O)C(C)C)C(=O)O)C(=O)O` [Compound 9] (HELM PEPTIDE1{H.[Aib].Q.G.T.F.T.S.D.Y.S.K.Y.L.E.E.K.R.A.R.E.F.V.A.W.L.L.E.G.G.P.S.S.G.[am]}|PEPTIDE2{[CCCCCCCCCCCCCCCC(=O)[*:2]].[gGlu].[gGlu]}$PEPTIDE1,PEPTIDE2,17:R3-3:R2$$$V2.0), the solubility is 1500 µg/mL (≈ 347 µM) in the data set “physchem” (setting [5]); 1070 µg/mL (≈ 247 µM) in “physchem” (setting [6]); above 2000 µg/mL in “physchem” (pH 8, Solubility, pH 8.0, 10 mM phosphate buffer); 1760 µg/mL (≈ 407 µM) in the data set “physchem” (pH 8, Solubility, pH 8.0, 20 mM phosphate buffer). Besides, the “AUC of blood glucose, Table 6” value in data set [1] came out at 8.71 ± 2.10 mmol·h/L. For the same compound, in data set [1], the “AUC reduction rate (%), Table 6” value is listed as 56.2** %. In data set [2], the “body weight change, Table 5” value came out at 19.9.
Take `CC(C)C[C@H](NC(=O)[C@H](Cc1c[nH]c2ccccc12)NC(=O)[C@H](C)NC(=O)[C@@H](NC(=O)[C@H](Cc1ccccc1)NC(=O)[C@H](CCC(=O)O)NC(=O)[C@H](CCCCN)NC(=O)[C@H](C)NC(=O)[C@H](C)NC(=O)[C@H](CCCNC(=N)N)NC(=O)[C@H](CCC(=O)O)NC(=O)[C@H](CCC(=O)O)NC(=O)[C@H](CC(C)C)NC(=O)[C@H](Cc1ccc(O)cc1)NC(=O)[C@H](CCCCN)NC(=O)[C@H](CO)NC(=O)[C@H](CCCCNC(=O)COCCOCCNC(=O)COCCOCCNC(=O)CC[C@H](NC(=O)CCCCCCCCCCCCCCCCC(=O)O)C(=O)O)NC(=O)[C@H](CC(=O)O)NC(=O)[C@H](CO)NC(=O)[C@@H](NC(=O)[C@H](Cc1ccccc1)NC(=O)[C@@H](NC(=O)CNC(=O)[C@H](CCC(N)=O)NC(=O)C(C)(C)NC(=O)[C@@H](N)Cc1c[nH]cn1)[C@@H](C)O)[C@@H](C)O)C(C)C)C(=O)N[C@@H](CCC(=O)O)C(=O)N[C@@H](C)C(=O)NCC(=O)NCC(=O)N1CCC[C@H]1C(=O)N[C@@H](CO)C(=O)N[C@@H](CO)C(=O)NCC(N)=O` [Compound 22] (H-H[Aib]QGTFTSDK([AEEA-AEEA-γGlu-C18 diacid])SKYLEERAAKEFVAWLEAGGPSSG-NH2; N-terminus assumed): the EC50 on GC receptor came to 0.018 nM. Besides, in data set [3] (at 48 hours vs day before administration), the “Rate of change in food intake (%)” value was −62%. Moreover, the “Body weight change” value in data set [3] (at 48 hours) was -2.6 g. The solubility in “physchem” (setting [5]) and in “physchem” (setting [6]) was above 2000 µg/mL each time. The “Change in purity % (10° C.)” value in data set [4] (10° C.) was −2.0%. Besides, in data set [4] (37° C.), the “Change in purity % (37° C.)” value was −5.7%.
On to “HAibQGTFTSDYSKYLEEK*RAREFVEWLLEAGGPSSG-Amid (HXQGTFTSDYSKYLEEKRAREFVEWLLEAGGPSSG; HELM PEPTIDE1{H.[Aib].Q.G.T.F.T.S.D.Y.S.K.Y.L.E.E.K.R.A.R.E.F.V.E.W.L.L.E.A.G.G.P.S.S.G.[am]}|PEPTIDE2{[CCCCCCCCCCCCCCCC(=O)[*:2]].[gGlu].[gGlu]}$PEPTIDE1,PEPTIDE2,17:R3-3:R2$$$V2.0; N-terminus assumed; SMILES CCCCCCCCCCCCCCCC(=O)N[C@@H](CCC(=O)N[C@@H](CCC(=O)NCCCC[C@H](NC(=O)[C@H](CCC(=O)O)NC(=O)[C@H](CCC(=O)O)NC(=O)[C@H](CC(C)C)NC(=O)[C@H](Cc1ccc(O)cc1)NC(=O)[C@H](CCCCN)NC(=O)[C@H](CO)NC(=O)[C@H](Cc1ccc(O)cc1)NC(=O)[C@H](CC(=O)O)NC(=O)[C@H](CO)NC(=O)[C@@H](NC(=O)[C@H](Cc1ccccc1)NC(=O)[C@@H](NC(=O)CNC(=O)[C@H](CCC(N)=O)NC(=O)C(C)(C)NC(=O)[C@@H](N)Cc1c[nH]cn1)[C@@H](C)O)[C@@H](C)O)C(=O)N[C@@H](CCCNC(=N)N)C(=O)N[C@@H](C)C(=O)N[C@@H](CCCNC(=N)N)C(=O)N[C@@H](CCC(=O)O)C(=O)N[C@@H](Cc1ccccc1)C(=O)N[C@H](C(=O)N[C@@H](CCC(=O)O)C(=O)N[C@@H](Cc1c[nH]c2ccccc12)C(=O)N[C@@H](CC(C)C)C(=O)N[C@@H](CC(C)C)C(=O)N[C@@H](CCC(=O)O)C(=O)N[C@@H](C)C(=O)NCC(=O)NCC(=O)N1CCC[C@H]1C(=O)N[C@@H](CO)C(=O)N[C@@H](CO)C(=O)NCC(N)=O)C(C)C)C(=O)O)C(=O)O) [Compound 8, 32; * = -γE-γE-OC16H31]”, for which, in data set [1], the “AUC of blood glucose, Table 6” value worked out at 8.11 ± 1.92 mmol·h/L and the “AUC reduction rate (%), Table 6” value is 59.2** %. For the same compound, in data set [2], the “body weight change, Table 5” value is given as 24.1.
semaglutide [reference compound]: in data set [1] (DIO mice fasted 16 h, glucose 1 g/kg i.p. 1 h after s.c. administration, 0.5, 1, 1.5 h), the “AUC of blood glucose, Table 4” value came out at 8.97 ± 1.27 mmol·h/L. Also, in data set [1], the “AUC of blood glucose, Table 6” value worked out at 8.33 ± 1.09 mmol·h/L and the “AUC reduction rate (%), Table 6” value is 58.1** %. Also, the “AUC reduction rate (%), Table 4” value in data set [1] (blood glucose inhibition rate compared with model control group, DIO mice, glucose 1 g/kg i.p.) is given as 57.7** %. Moreover, the “body weight change rate, Table 3” value in data set [2] (DIO mice, subcutaneous injection every day for 14 days, (initial−last)/initial) was 13.20%. For the same compound, the “body weight change, Table 5” value in data set [2] came to 16.29.
